Source: US11447486B2, “2-amino-benzimidazole derivatives and their use as 5-lipoxygenase and/or prostaglandin E synthase inhibitors” (INSTITUT PASTEUR KOREA, priority 2014, dated 2022)
Where two headings read alike, the source gives them in different places.

Columns and labels:
[1] = molecular target: T1, human 5-LOX (Homo sapiens, UniProt P09917); test: 5-LOX enzyme activity, fluorescence method (5-HPETE, H2DCFDA); format: biochemical; conditions: read-out: 5-LO (IC50)
T1 construct: purchased Cayman 60402; host or cells: insect cells (lysate)
T1 sequence (P09917 1-674): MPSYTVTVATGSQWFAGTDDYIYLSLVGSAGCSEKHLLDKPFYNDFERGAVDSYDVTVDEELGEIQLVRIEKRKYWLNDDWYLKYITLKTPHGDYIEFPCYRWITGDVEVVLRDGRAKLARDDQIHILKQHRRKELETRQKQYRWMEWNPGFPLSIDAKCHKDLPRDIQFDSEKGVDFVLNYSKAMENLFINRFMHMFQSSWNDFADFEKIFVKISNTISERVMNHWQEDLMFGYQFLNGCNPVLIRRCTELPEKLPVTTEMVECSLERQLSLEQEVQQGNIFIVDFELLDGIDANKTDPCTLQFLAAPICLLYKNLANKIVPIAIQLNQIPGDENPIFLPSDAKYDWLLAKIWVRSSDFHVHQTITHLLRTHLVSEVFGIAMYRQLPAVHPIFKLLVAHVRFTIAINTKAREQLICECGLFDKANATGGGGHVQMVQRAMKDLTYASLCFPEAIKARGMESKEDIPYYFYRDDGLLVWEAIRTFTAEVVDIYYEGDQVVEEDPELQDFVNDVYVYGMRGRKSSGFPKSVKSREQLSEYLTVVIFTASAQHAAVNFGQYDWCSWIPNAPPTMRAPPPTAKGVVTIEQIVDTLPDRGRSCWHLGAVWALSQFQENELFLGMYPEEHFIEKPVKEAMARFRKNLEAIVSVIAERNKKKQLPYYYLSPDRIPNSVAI
Method: The activity of compounds against 5-LOX were determined by measuring LTB4 (leukotriene B4) levels and/or by a fluorescence method. Both approaches are outlined in more detail below;
The compound, in a dose response manner(0.5 nM to 10 uM), and enzyme mixture was pre-incubated for 5 minutes, and the enzymatic reaction was initiated by addition of ATP and arachidonic acid to a final concentration of 100 uM and 3 uM, respectively. […] All steps were carried out at room temperature.

[2] = tested on: Rat basophilic leukemia (RBL) cells; test: LTB4 secretion assay in RBL (rat basophilic leukemia cells); format: cell-based
Method: Rat basophilic leukemia (RBL) cells (ATCC, Cat #CRL-2256) were maintained in EMEM (ATCC, Cat #30-2003) supplemented with 15% FBS. The day before RBL assay, cells were seeded at a concentration of 2×10^4 cells per well in 96-well plates. The media was replaced with 100 ul of EMEM supplemented with 0.5% FBS and compounds in dose response(5 nM to 100 uM) were added. After 15 min of pre-incubation at 37° C., arachidonic acid and calcium ionophore (A23187) were added to give a final concentration of 2.5 uM and 5 uM, respectively. After a further 10 min incubation at 37° C., culture supernatant was transferred and quantification of LTB4 was done with a Leukotriene B4 EIA kit (Cayman, Cat #520111) as instructed.

Row | Structure (SMILES) | IC50 [1] [µM] | EC50 ([2]; Rattus norvegicus, RBL) [µM] | EC50 [2] [µM]
1 | Nc1nc2ccc(N3CC(F)(F)C3)cc2n1Cc1ccc(Oc2ccc(Cl)cn2)cc1 [Compound 235] | > 10 | < 10 | 
2 | Cn1c(NCc2ccc(Oc3ncc4c(Cl)cccc4n3)cc2)nc2ccc(NC3COC3)cc21 [Compound 435] | < 1 | < 10 | 
3 | CN(C)c1nc2cc(N3CCCC(Oc4ccc(OC(F)(F)F)cc4)C3)ccc2[nH]1 (stereo not shown) [Compound 183] | < 1 | > 20 | 
4 | Cn1ccnc1CNc1ccc2nc(NCc3ccc(Oc4ncc(Cl)cn4)cc3)n(C)c2c1 [Compound 359] | < 1 | < 10 | 
5 | Cn1c(NCc2ccc(Oc3ccc4cccc(Cl)c4n3)cc2)nc2ccc(NC3COC3)cc21 [Compound 422] | < 1 | < 10 | 
6 | Cn1c(NCc2ccc(Oc3ncc(Cl)cc3Cl)cc2)nc2ccc(NC3COC3)cc21 [Compound 322] | > 10 | < 10 | 
7 | Cn1c(N2CCC(Oc3ccc(F)cc3)CC2)nc2cc(N)ccc21 [Compound 35] | 1 to 10 | > 20 | 
8 | FC(F)(F)Oc1ccc(OC2CCN(c3ccc4nc(NCCN5CCOCC5)[nH]c4c3)C2)cc1 (stereo not shown) [Compound 143] | < 1 | 10 to 20 | 
9 | Nc1ccc2nc(N3CCC(C(=O)c4ccc(OC(F)(F)F)cc4)C3)[nH]c2c1 (stereo not shown) [Compound 178] | < 1 | 10 to 20 | 
10 | Cn1c(NCc2ccc(Oc3ccc(Cl)cc3)nc2)nc2ccc(N)cc21 [Compound 287] | < 1 | < 10 | 
11 | CC(C)(CO)Nc1nc2ccc(N)cc2n1Cc1ccc(Oc2ccc(Cl)cc2)cc1 [Compound 187] | < 1 | < 10 | 
12 | Nc1ccc2nc(NCc3ccc(Oc4ccc(Cl)cn4)cc3)n(CCO)c2c1 [Compound 259] | < 1 | < 10 | 
13 | Nc1ccc2nc(NCc3ccc(C(O)c4ccccn4)cc3)[nH]c2c1 (stereo not shown) [Compound 139] | < 1 | > 20 | 
14 | Cc1cc(Nc2ccc3nc(NCc4ccc(Oc5ncc(Cl)cn5)cc4)n(C)c3n2)n[nH]1 [Compound 500] | 1 to 10 | 10 to 20 | 
15 | FC(F)(F)Oc1ccc(OCCn2c(N3CCCC3)nc3ccc(N4CCC4)cc32)cc1 [Compound 84] | < 1 | < 10 | 
16 | Cn1c(NCc2ccc(Oc3ccc4cccc(Cl)c4n3)cc2)nc2ccc(N)cc21 [Compound 421] | < 1 | < 10 | 
17 | CCn1c(NCc2ccc(Oc3ncc(Cl)cn3)cc2)nc2ccc(Nc3cc(C(F)(F)F)n(C)n3)cc21 [Compound 510] | > 10 |  | < 10
18 | Cc1cnc(Oc2ccc(CNc3nc4ccc(N)cc4n3C)cc2)nc1 [Compound 348] | < 1 | > 20 | 
19 | CN(C)c1nc2ccc(NCc3ccc(N(Cc4ncc[nH]4)c4ccc(F)cc4)cc3)cc2[nH]1 [Compound 216] | < 1 | < 10 | 
20 | Cn1c(NCc2ccc(Oc3ncc(Cl)cn3)cc2)nc2ccc(NC3CSC3)cc21 [Compound 366] | < 1 | < 10 | 
21 | Cn1c(NCc2ccc(Oc3ccc4cc(Cl)ccc4n3)cc2)nc2ccc(NC3COC3)cc21 [Compound 390] | < 1 | < 10 | 
22 | CN(C)c1nc2ccc(N3CCC(C(=O)c4ccc(Cl)cn4)C3)cc2[nH]1 (stereo not shown) [Compound 230] | < 1 | < 10 | 
23 | Cn1c(NCc2ccc(Oc3ccc(OC(F)(F)F)cc3)cc2)nc2ccc(N)cc21 [Compound 292] | < 1 | < 10 | 
24 | Nc1ccc2nc(N3CCC(F)(F)C3)n(CCOc3ccc(OC(F)(F)F)cc3)c2c1 [Compound 100] | < 1 | < 10 | 

Row | Structure (SMILES) | IC50 [1] [µM] | EC50 ([2]; Rattus norvegicus, RBL) [µM] | EC50 [2] [µM]
25 | Cn1c(NCc2ccc(Oc3ccc(C(F)(F)F)nc3)cc2)nc2ccc(N)cc21 [Compound 223] | < 1 | < 10 | 
26 | Nc1ccc2nc(-n3cc(F)cn3)n(CCOc3ccc(OC(F)(F)F)cc3)c2c1 [Compound 78] | > 10 | 10 to 20 | 
27 | Cn1c(NCc2ccc(Oc3ccc(Cl)cc3)cc2)nc2ccc(N3CC(O)C3)cc21 [Compound 192] | < 1 | < 10 | 
28 | Cn1nccc1-c1ccc(CNc2nc3cc(N)ccc3[nH]2)cc1 [Compound 200] | < 1 | < 10 | 
29 | Cn1c(NCc2ccc(Nc3ncc(Cl)cn3)cc2)nc2ccc(N)cc21 [Compound 458] | < 1 | < 10 | 
30 | Nc1cnc2nc(N3CCCC3)n(CCOc3ccc(OC(F)(F)F)cc3)c2c1 [Compound 83] | 1 to 10 | > 20 | 
31 | FC1(F)CN(c2ccc3nc(NCc4ccc(Oc5ccc(Cl)cc5)cc4)[nH]c3c2)C1 [Compound 242] | 1 to 10 | < 10 | 
32 | Cn1c(NCc2ccc(Oc3ncc4cccc(Cl)c4n3)cc2)nc2ccc(N)cc21 [Compound 436] | < 1 | < 10 | 
33 | COC(=O)c1ccc(OC2CCN(c3ccc4[nH]c(N(C)C)nc4c3)C2)cc1 (stereo not shown) [Compound 194] | < 1 | < 10 | 
34 | Cn1c(NCc2ccc(Oc3nccc4cc(Cl)ccc34)cc2)nc2ccc(NC3COC3)cc21 [Compound 439] | < 1 | 10 to 20 | 
35 | CC(C)(O)Cn1c(NCc2ccc(Oc3ccc(Cl)cc3)cc2)nc2ccc(N)cc21 [Compound 209] | < 1 | < 10 | 
36 | Fc1ccc(CNc2nc3cc(NCc4cnc[nH]4)ccc3[nH]2)cc1 [Compound 29] | < 1 | < 10 | 
37 | Cn1c(NCCOc2ccc(Cl)c(Cl)c2)nc2cc(N)ccc21 [Compound 61] | < 1 | 10 to 20 | 
38 | Nc1ccc2nc(NCc3ccc(C(=O)C4CCCC4)cc3)[nH]c2c1 [Compound 168] | < 1 | < 10 | 
39 | Cn1c(NCc2ccc(Oc3ccnc4c(Cl)cccc34)cc2)nc2ccc(NC3COC3)cc21 [Compound 388] | < 1 | 10 to 20 | 
40 | FC(F)(F)Oc1ccc(OC2CCN(c3ccc4nc(NCCCN5CCOCC5)[nH]c4c3)C2)cc1 (stereo not shown) [Compound 142] | < 1 | 10 to 20 | 
41 | Nc1ccc2nc(NCc3ccc(Oc4ccc(Cl)cn4)cc3)n(C3COC3)c2c1 [Compound 261] | < 1 | < 10 | 
42 | Cn1c(NCc2ccc(Oc3ncc(Cl)cn3)cc2)nc2ccc(NCC(O)c3ccc(F)cc3)cc21 (stereo not shown) [Compound 372] | < 1 | < 10 | 
43 | Nc1ccc2[nH]c(N3CCC(Oc4ccc(OC(F)(F)F)cc4Cl)C3)nc2c1 (stereo not shown) [Compound 71] | < 1 | 10 to 20 | 
44 | Cn1c(NCc2ccc(Oc3ccc(Cl)cn3)cc2)nc2ccc(NCCc3ccccn3)cc21 [Compound 329] | < 1 | < 10 | 
45 | Nc1ccc2nc(N)n(CCc3ccc(Oc4ccc(Cl)cn4)cc3)c2c1 [Compound 244] | < 1 | < 10 | 
46 | Cc1cc(Nc2ccc3nc(NCc4ccc(Oc5ncc(Cl)cn5)cc4)[nH]c3c2)n[nH]1 [Compound 484] | < 1 |  | > 20
47 | Cn1c(NCc2ccc(Oc3nc4cc(Cl)ccc4o3)cc2)nc2ccc(N)cc21 [Compound 402] | < 1 | < 10 | 
